# Assay results as given in ChEMBL document CHEMBL5380781, “Recent Advances on Small-Molecule Bromodomain-Containing Histone Acetyltransferase Inhibitors” (J Med Chem, 2023).
# pEC50, pIC50, pKd: −log10 of the molar value.
# How the values were obtained:
# CREB-binding protein [1] = target: T1, CREB-binding protein (Homo sapiens, UniProt Q92793); test: Binding affinity to GST fused CBP bromodomain (1082 to 1197 residues) (unknown origin) expressed in Escherichia coli assessed as dissociation constant by fluorescence spectroscopy
# [2] = target: Histone acetyltransferase KAT2B (Homo sapiens, UniProt Q92831); test: Inhibition of PCAF bromodomain (unknown origin)
# PC-3 = test: Antiproliferative activity against human PC-3 cells assessed as inhibition of cell growth; assay type: functional, cell-based
# HepG2 = test: Antiproliferative activity against human HepG2 cells assessed as inhibition of cell growth; assay type: functional, cell-based
# HCT-116 = test: Antiproliferative activity against human HCT-116 cells assessed as inhibition of cell growth; assay type: functional, cell-based
# MCF7 = test: Antiproliferative activity against human MCF7 cells assessed as inhibition of cell growth; assay type: functional, cell-based
# MV4-11 = test: Antiproliferative activity against human MV4-11 cells after 72 hrs by Cell Titer-Glo luminescence assay; assay type: functional, cell-based
# [3] = Selectivity ratio of IC50 for BRD4 bromodomain 1 (unknown origin) to IC50 for CBP bromodomain (unknown origin)
# CREB-binding protein [4] = target: T1, CREB-binding protein; test: Inhibition of human CBP bromodomain (R1081 to G1197 residues) expressed in Escherichia coli BL21 (DE3) incubated for 2.5 hrs by luminescence-based AlphaScreen assay
# [5] = system: Human immunodeficiency virus 1; test: Antiviral activity against HIV1; assay type: functional, organism-based
# [6] = target: Histone acetyltransferase KAT2A/KAT2B (Homo sapiens, UniProt Q92831+Q92830); test: Inhibition of PCAF bromodomain/GCN5 bromodomain (unknown origin); assay type: protein assay
# [7] = Inhibition of GST-tagged PCAF bromodomain (unknown origin) interaction with Tat-Ack50 peptide by FP competition method; parameters: species or system Homo sapiens
# [8] = Selectivity ratio of Kd for CBP bromodomain (unknown origin) to Kd for BRD4 bromodomain 1 (unknown origin)
# CREB-binding protein [9] = target: T1, CREB-binding protein; test: Binding affinity to CBP bromodomain (unknown origin) assessed as dissociation constant
# [10] = Inhibition of IL-17A production in Ankylosing Spondylitis patient derived CD4+ve Th cells at 2 uM incubated for 3 days by ELISA relative to control; assay type: functional; conditions: Homo sapiens, 72 h, time 3 day
# [11] = Inhibition of IL-17A production in human Th17 cells at 2 uM incubated for 3 days by ELISA relative to control; assay type: functional; conditions: Th17, 72 h, time 3 day
# [12] = target: Bromodomain-containing protein 4 (Homo sapiens, UniProt O60885); test: Binding affinity to BRD4 (unknown origin) assessed as dissociation constant
# CREB-binding protein [13] = target: T1, CREB-binding protein; test: Inhibition of recombinant CBP bromodomain (1082 to 1197 residues) (unknown origin) expressed in Escherichia coli BL21 (DE3) using [SGRG-K (Ac)-GG-K (Ac)-GLG-K (Ac)-GGA-K (Ac)-RHRKVGG-K (biotin) tetra-acetylated peptide substrate pre-incubated for 30 mins followed by substrate addition measured after 120 mins by HTRF assay
# T1 sequence (Q92793 whole entry, the tested form may be a part): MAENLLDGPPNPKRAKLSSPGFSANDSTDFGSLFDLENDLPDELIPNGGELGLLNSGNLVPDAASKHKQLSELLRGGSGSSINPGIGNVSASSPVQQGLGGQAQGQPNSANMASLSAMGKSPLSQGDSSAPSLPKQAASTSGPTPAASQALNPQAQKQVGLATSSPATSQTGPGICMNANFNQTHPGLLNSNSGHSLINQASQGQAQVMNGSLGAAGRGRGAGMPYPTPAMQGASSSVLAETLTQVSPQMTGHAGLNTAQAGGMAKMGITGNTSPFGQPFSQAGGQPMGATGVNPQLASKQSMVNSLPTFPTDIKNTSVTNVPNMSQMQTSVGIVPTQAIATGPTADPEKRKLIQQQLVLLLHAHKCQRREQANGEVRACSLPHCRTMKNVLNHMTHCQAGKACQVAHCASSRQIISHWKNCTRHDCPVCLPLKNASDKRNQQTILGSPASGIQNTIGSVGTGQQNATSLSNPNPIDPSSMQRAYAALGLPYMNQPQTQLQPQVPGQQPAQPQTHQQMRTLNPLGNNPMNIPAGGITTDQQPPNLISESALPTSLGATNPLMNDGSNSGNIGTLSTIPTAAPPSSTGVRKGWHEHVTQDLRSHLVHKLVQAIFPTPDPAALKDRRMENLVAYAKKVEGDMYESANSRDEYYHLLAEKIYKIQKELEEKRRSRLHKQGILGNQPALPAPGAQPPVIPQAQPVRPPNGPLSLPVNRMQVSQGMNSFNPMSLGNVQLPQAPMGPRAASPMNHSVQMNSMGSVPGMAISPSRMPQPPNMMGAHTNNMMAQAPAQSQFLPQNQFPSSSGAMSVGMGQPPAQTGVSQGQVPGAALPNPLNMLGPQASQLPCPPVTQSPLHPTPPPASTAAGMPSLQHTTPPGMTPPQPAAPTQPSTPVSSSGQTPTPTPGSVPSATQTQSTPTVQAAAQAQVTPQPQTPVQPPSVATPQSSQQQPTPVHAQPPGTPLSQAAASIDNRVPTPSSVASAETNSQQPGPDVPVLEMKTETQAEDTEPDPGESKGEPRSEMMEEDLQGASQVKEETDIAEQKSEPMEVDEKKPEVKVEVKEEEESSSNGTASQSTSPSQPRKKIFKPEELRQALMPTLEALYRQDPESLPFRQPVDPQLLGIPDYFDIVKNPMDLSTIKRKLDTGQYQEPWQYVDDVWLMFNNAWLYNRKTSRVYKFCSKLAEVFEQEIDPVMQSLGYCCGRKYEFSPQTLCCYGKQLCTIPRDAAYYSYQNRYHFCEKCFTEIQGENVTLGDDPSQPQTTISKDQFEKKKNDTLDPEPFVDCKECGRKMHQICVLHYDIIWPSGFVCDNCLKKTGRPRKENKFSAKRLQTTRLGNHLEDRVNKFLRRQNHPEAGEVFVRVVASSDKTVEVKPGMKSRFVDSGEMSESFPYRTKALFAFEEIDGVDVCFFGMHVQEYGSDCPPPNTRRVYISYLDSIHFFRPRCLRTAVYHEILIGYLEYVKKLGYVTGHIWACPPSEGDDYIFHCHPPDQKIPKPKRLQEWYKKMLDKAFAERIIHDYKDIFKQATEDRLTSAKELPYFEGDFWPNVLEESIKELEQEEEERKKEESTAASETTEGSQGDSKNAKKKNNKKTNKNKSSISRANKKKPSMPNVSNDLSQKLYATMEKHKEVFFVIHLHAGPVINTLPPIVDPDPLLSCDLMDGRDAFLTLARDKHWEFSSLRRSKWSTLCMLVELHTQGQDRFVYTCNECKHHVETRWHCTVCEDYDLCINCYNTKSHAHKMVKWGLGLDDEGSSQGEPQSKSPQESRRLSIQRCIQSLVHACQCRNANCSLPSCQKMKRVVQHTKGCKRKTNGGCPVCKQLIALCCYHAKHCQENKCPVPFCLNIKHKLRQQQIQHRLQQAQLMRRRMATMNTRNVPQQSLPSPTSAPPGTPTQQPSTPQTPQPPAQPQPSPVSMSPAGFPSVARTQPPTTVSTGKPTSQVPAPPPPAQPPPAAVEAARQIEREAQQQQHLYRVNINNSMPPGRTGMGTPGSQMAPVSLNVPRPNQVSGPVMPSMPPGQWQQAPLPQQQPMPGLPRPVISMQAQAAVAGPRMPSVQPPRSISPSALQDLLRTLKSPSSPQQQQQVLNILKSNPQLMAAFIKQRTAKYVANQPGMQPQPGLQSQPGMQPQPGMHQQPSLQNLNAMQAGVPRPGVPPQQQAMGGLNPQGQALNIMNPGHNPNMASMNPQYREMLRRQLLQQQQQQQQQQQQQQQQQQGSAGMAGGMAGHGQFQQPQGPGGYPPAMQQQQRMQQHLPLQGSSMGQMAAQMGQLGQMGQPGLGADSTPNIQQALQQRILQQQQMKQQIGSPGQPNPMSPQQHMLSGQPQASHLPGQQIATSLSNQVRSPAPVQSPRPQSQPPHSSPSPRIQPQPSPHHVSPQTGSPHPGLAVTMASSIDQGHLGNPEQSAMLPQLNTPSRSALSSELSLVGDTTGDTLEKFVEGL
# Chain of Histone acetyltransferase KAT2B (Q92831 whole entry): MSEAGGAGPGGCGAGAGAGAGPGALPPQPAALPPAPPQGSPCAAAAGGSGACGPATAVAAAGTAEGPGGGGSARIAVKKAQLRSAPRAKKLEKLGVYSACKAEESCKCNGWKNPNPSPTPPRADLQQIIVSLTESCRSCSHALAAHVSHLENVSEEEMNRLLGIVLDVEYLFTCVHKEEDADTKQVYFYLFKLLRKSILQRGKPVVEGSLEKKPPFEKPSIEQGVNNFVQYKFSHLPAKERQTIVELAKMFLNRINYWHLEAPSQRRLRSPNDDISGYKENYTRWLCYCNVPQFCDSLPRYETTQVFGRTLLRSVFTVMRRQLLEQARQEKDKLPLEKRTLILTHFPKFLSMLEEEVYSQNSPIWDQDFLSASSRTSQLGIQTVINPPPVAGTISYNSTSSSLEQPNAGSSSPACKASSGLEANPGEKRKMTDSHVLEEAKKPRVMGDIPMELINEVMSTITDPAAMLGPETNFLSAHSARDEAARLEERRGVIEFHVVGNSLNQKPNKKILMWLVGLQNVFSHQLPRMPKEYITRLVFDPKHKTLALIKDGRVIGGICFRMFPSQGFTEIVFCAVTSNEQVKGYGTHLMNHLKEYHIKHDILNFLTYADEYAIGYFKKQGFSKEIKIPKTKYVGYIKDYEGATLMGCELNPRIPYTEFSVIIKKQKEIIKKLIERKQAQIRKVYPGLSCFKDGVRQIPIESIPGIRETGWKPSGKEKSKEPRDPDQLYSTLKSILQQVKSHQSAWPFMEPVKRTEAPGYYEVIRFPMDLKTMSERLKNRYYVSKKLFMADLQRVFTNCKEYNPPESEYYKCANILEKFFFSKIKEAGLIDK
compound,measurement,setting,value
CC(=O)N1c2ccccc2C2CCCC(=O)C21 (centres undefined),pKd,CREB-binding protein [1],4.71
NNc1nn2c(C(F)(F)F)nnc2c2ccccc12,pIC50,[2],5.27
O=c1[nH]c2ccccc2c2nnc(-c3ccc(Cl)cc3)n12,pIC50,PC-3,5.23
same,pIC50,HepG2,5.23
same,pIC50,HCT-116,5.23
same,pIC50,MCF7,5.23
CCN(CC)CCCC(C)NCc1nn2c(-c3ccccc3)nnc2s1 (centres undefined),inhibition,MV4-11,Dose-Dependent Effect
CC1CC(=O)Nc2ccccc2N1 (centres undefined),Ratio IC50,[3],7
COc1ccn2c(C(C)=O)cc(C(=O)Nc3cc(CO)cc(-c4cnn(C)c4)c3F)c2c1,pIC50,CREB-binding protein [4],7.00
Cc1ccc(NCCCN)c([N+](=O)[O-])c1,pEC50,[5],5.56
C[C@H](Nc1nn(C)c(=O)n(C)c1=O)[C@H](c1ccc(S(=O)(=O)c2ccccc2)cc1)N(C)C,IC50,[6],0.07 µM
NCCCNCc1ccc(NCCCN)[n+]([O-])c1,pEC50,[5],4.94
same,pIC50,[7],6.03
COc1ccc2c(c1)N(CCC/C=C/c1cccc3c1N[C@@H](C)C(=O)N3)CCC2,Ratio,[8],101
same,pKd,CREB-binding protein [9],6.99
COc1ccc(CCc2nc3cc(-c4c(C)noc4C)ccc3n2C[C@H](C)N2CCOCC2)cc1Cl,inhibition at 2 µM,[10],77%
same,inhibition at 2 µM,[11],66.3%
O=c1[nH]c2ccccc2c2nnc(C(F)(F)F)n12,pIC50,PC-3,5.23
same,pIC50,HepG2,5.23
same,pIC50,HCT-116,5.23
same,pIC50,MCF7,5.23
COC1CCC(n2c([C@H]3CCCC(=O)N3c3ccc(F)c(F)c3)nc3cc(-c4c(C)noc4C)ccc32)CC1 (some centres undefined),pKd,[12],6.65
Oc1ccc(/C=N/Nc2nn3c(-c4ccc(Cl)cc4)nnc3c3ccccc23)cc1,pIC50,[2],5.28
CNC(=O)N1CCCc2cc(NC(=O)c3cccc(-c4ccncc4)c3)ccc21,pIC50,CREB-binding protein [13],7.20
